The text below walks through data of ChEMBL document CHEMBL5252599, “Euphohelides A-C, ent-Abietane-Type Norditerpene Lactones from Euphorbia helioscopia and Their Anti-Inflammatory Activities” (J Nat Prod, 2023).

Molecules are shown by their SMILES. Active and inactive are the calls of the source. The calls are words filed in the database; no cut-off is given here.

For series [1], the system named is RAW264.7. Nature of the series: Cytotoxicity against mouse RAW264.7 cells assessed as reduction in cell viability at 100 uM measured after 24 hrs by CCK8 assay. It counts as toxicity, cell-based. The following applies: raw264.7, 24 h. (In general: Tetrazolium dyes change colour on reduction, which living cells bring about.)
For series [2], the system named is RAW264.7. As to the kind of experiment: Antiinflammatory activity in mouse RAW264.7 cells assessed as reduction in LPS-induced NO production pre-incubated for 2 hrs followed by LPS stimulation measured after 24 hrs by Griess method. It counts as functional, cell-based. For orientation: The Griess reaction detects nitrite, a stable product of nitric oxide.
Series [3] has as its system RAW264.7. Nature of the series: Antiinflammatory activity against mouse RAW264.7 cells assessed as inhibition of LPS-induced NF-kappaB/p65 expression at 10 to 40 uM pre-incubated for 2 hrs followed by LPS stimulation measured after 24 hrs by western blot analysis. It is filed as functional, cell-based. The following applies: dose 10-40 µM, time 26.0 hrs. A general note: In western blotting, separated proteins are transferred to a membrane and probed.

Series [4] relates to RAW264.7. As to the kind of experiment: Antiinflammatory activity in mouse RAW264.7 cells assessed as reduction in LPS-induced IL-6 production pre-incubated for 2 hrs followed by LPS stimulation measured after 24 hrs by Griess method. It counts as functional, cell-based. The following applies: dose 5-40 µM, time 26.0 hrs.
The test system of series [5] is RAW264.7. As to the kind of experiment: Antiinflammatory activity in mouse RAW264.7 cells assessed as reduction in LPS-induced TNF-alpha production pre-incubated for 2 hrs followed by LPS stimulation measured after 24 hrs by Griess method. It is filed as functional, cell-based. The following applies: dose 5-40 µM, time 26.0 hrs.
In series [6] the test system is RAW264.7. As to the kind of experiment: Antiinflammatory activity against mouse RAW264.7 cells assessed as inhibition of LPS-induced iNOS expression at 10 uM pre-incubated for 2 hrs followed by LPS stimulation measured after 24 hrs by western blot analysis. It counts as functional, cell-based. The following applies: time 26.0 hrs.

Take `CC1=C2C=C3CC[C@@H]4C(C)(C)OC(=O)[C@@]4(C)[C@@H]3C[C@H]2OC1=O`: the Activity result in series [1] is on record as “Non-Toxic”.

Take `CC1=C2C(=O)C3=C(C[C@H]2OC1=O)[C@]1(C)CC[C@@H](O)C(C)(CO)[C@H]1CC3` (some centres not stated): in series [1], the Activity entry is recorded as “Non-Toxic”.

With `CC1=C2C=C3CC[C@@H]4C(C)(C)[C@H](O)[C@H](O)C[C@@]4(C)[C@@H]3C[C@H]2OC1=O`, in series [1], the Activity result is reported as “Non-Toxic”.

Take `CC1=C2C=C3CC[C@@H]4C(C)(C)C(=O)C(O)=C[C@@]4(C)[C@@H]3C[C@H]2OC1=O`: the Activity result in series [1] was “Non-Toxic”.

For orientation: IC50 means the point on the concentration scale where inhibition reaches its midpoint. Take `CC1=C2C=C3CC[C@@H]4C(C)(C)[C@H](O)C(=O)C[C@@]4(C)[C@@H]3C[C@H]2OC1=O`: the IC50 in series [2] was 33.8 µM. Besides, in series [1], the Activity result was “Non-Toxic”.

On to `CC1=C2C=C3CC[C@@H]4C(C)(C)OC(=O)C[C@@]4(C)[C@@H]3C[C@H]2OC1=O`, for which, in series [1], the Activity result is recorded as “Non-Toxic”.

On to `CC1=C2C=C3CC[C@@H]4C(C)(C)[C@@H](O)CC[C@@]4(C)[C@]3(O)C[C@H]2OC1=O`, for which the Activity entry in series [1] is reported as “Non-Toxic”.

As to `CC1=C2C=C3CC[C@@H]4C(C)(C)C(=O)[C@H](O)[C@@]4(C)[C@@H]3C[C@H]2OC1=O`, the outcome in series [3] and in series [6] was Active. In series [2], the IC50 amounted to 33 µM. For the same compound, the Activity entry in series [4] was “Dose-Dependent Effect”; in series [1] it was “Non-Toxic”; in series [5], “Dose-Dependent Effect”.

Turning to `CC1=C2C=C3CC[C@@H]4C(C)(C)[C@@H](O)CC[C@@]4(C)[C@@H]3C[C@H]2OC1=O` [HELIOSCOPINOLIDE B], the Activity result in series [1] is listed as “Non-Toxic”.

On to `CC1=C2C=C3CC[C@@H]4C(C)(C)[C@H](O)CC[C@@]4(C)[C@@H]3C[C@H]2OC1=O` [HELIOSCOPINOLIDE A], for which the Activity result in series [1] is “Non-Toxic”.

For `CC1=C2C=C3CC[C@@H]4C(C)(C)C(=O)CC[C@@]4(C)[C@]3(O)C[C@H]2OC1=O`, the Activity entry in series [1] is “Non-Toxic”.
